These results are taken from patent publication US9067926B2, “Fluoromethyl-5,6-dihydro-4H-[1,3]OXAZINES” (F. Hoffmann-La Roche AG, priority 2012, dated 2015).

As a reminder, the IC50 is the point on the concentration scale where inhibition reaches its midpoint.

The structures appear in SMILES notation.

T1 sequence (P56817 46-501): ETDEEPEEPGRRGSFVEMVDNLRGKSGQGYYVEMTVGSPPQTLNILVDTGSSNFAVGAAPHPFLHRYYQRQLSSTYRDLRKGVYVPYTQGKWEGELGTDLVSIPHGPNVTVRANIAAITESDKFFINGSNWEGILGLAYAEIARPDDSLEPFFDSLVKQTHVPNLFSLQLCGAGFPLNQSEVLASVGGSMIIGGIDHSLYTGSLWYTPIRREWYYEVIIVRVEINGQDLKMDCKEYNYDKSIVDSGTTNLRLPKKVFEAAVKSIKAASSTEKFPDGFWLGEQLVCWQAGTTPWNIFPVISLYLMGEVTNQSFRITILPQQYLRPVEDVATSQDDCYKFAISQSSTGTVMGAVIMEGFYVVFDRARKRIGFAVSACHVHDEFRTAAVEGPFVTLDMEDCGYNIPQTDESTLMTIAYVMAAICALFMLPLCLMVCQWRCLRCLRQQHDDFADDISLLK

The assay concerns the target T1, BACE1 (Homo sapiens, UniProt P56817).
T1 construct: endogenous in cells; host or cells: HEK293 APP cells
Put plainly: Cellular Aβ-lowering assay (Abeta 40 AlphaLISA). Conditions: HEK293 APP cells, 18-20 hrs incubation, Aβ 40 in culture supernatant; read-out: BACE1 cell act. Aβ40 IC50. It is filed as cell-based. How it is done:
Cellular Aβ-Lowering Assay:
The Abeta 40 AlphaLISA Assay can be used. The HEK293 APP cells were seeded in 96 well Microtiter plates in cell culture medium (Iscove's, plus 10% (vv) fetal bovine serum, penicillinstreptomycin) to about 80% confluency and the compounds were added at a 3× concentration in 13 volume of culture medium (final DMSO concentration was kept at 1% vv). After 18-20 hrs incubation at 37° C. and 5% CO2 in a humidified incubator, the culture supernatants were harvested for the determination of Aβ 40 concentrations using Perkin-Elmer Human Amyloid beta 1-40 (high specificity) Kit (Cat# AL275C).
Levels of Aβ 40 in the culture supernatants were calculated as percentage of maximum signal (cells treated with 1% DMSO without inhibitor). The IC50 values were calculated using the Excel XLfit software.
On the technique in general: Bead proximity is the source of the signal in Alpha formats.
Consider `C[C@@]1(c2cc(NC(=O)c3ccc(C(F)F)cn3)ccc2F)C[C@@H](C(F)(F)F)OC(N)=N1` [Example 17, N-(3-((4S,6S)-2-Amino-4-methyl-6-(trifluoromethyl)-5,6-dihydro-4H-1,3-oxazin-4-yl)-4-fluorophenyl)-5-(difluoromethyl)picolinamide], for which the IC50 amounted to 2 nM.
For the molecule `C[C@@]1(c2cc(NC(=O)c3ccc(OCC(F)(F)F)cn3)ccc2F)C[C@@H](C(F)(F)F)OC(N)=N1` [Example 18, N-(3-((4S,6S)-2-Amino-4-methyl-6-(trifluoromethyl)-5,6-dihydro-4H-1,3-oxazin-4-yl)-4-fluorophenyl)-5-(2,2,2-trifluoroethoxy)picolinamide], the IC50 turned out to be 8 nM.
With `C[C@@]1(c2cc(NC(=O)c3cnc(CF)cn3)ccc2F)C[C@@H](C(F)(F)F)OC(N)=N1` [Example 19, N-(3-((4S,6S)-2-Amino-4-methyl-6-(trifluoromethyl)-5,6-dihydro-4H-1,3-oxazin-4-yl)-4-fluorophenyl)-5-(fluoromethyl)pyrazine-2-carboxamide] the figure was 6 nM; with `C[C@@]1(c2cc(NC(=O)c3cnc(C(F)F)cn3)ccc2F)C[C@@H](C(F)(F)F)OC(N)=N1` [Example 20, N-(3-((4S,6S)-2-Amino-4-methyl-6-(trifluoromethyl)-5,6-dihydro-4H-1,3-oxazin-4-yl)-4-fluorophenyl)-5-(difluoromethyl)pyrazine-2-carboxamide], 5 nM.
Then `Cc1cnc(C(=O)Nc2ccc(F)c([C@]3(C)C[C@@H](C(F)(F)F)OC(N)=N3)c2)cn1` [Example 21, N-(3-((4S,6S)-2-Amino-4-methyl-6-(trifluoromethyl)-5,6-dihydro-4H-1,3-oxazin-4-yl)-4-fluorophenyl)-5-methylpyrazine-2-carboxamide], with 59 nM.
Then `C[C@@]1(c2cc(NC(=O)c3cnc(OCF)cn3)ccc2F)C[C@@H](C(F)(F)F)OC(N)=N1` [Example 23, N-(3-((4S,6S)-2-Amino-4-methyl-6-(trifluoromethyl)-5,6-dihydro-4H-1,3-oxazin-4-yl)-4-fluorophenyl)-5-(fluoromethoxy)pyrazine-2-carboxamide], with 1 nM; and `C[C@@]1(c2cc(NC(=O)c3cnc(OC(F)F)cn3)ccc2F)C[C@@H](C(F)(F)F)OC(N)=N1` [Example 24, N-(3-((4S,6S)-2-Amino-4-methyl-6-(trifluoromethyl)-5,6-dihydro-4H-1,3-oxazin-4-yl)-4-fluorophenyl)-5-(difluoromethoxy)pyrazine-2-carboxamide], with 3 nM; and `C[C@@]1(c2cc(NC(=O)c3coc(CF)n3)ccc2F)C[C@@H](C(F)(F)F)OC(N)=N1` [Example 25, N-(3-((4S,6S)-2-Amino-4-methyl-6-(trifluoromethyl)-5,6-dihydro-4H-1,3-oxazin-4-yl)-4-fluorophenyl)-2-(fluoromethyl)oxazole-4-carboxamide], with 0.8 nM.
Take `C[C@@]1(c2cc(NC(=O)c3nn(C(F)F)cc3Cl)ccc2F)C[C@@H](C(F)(F)F)OC(N)=N1` [Example 26, N-(3-((4S,6S)-2-Amino-4-methyl-6-(trifluoromethyl)-5,6-dihydro-4H-1,3-oxazin-4-yl)-4-fluorophenyl)-4-chloro-1-(difluoromethyl)-1H-pyrazole-3-carboxamide]: the IC50 amounted to 1 nM.
For the molecule `Cc1cc(C#N)cnc1C(=O)Nc1ccc(F)c([C@]2(CF)C[C@@H](C(F)(F)F)OC(N)=N2)c1` [Example 27, N-(3-((4S,6S)-2-Amino-4-(fluoromethyl)-6-(trifluoromethyl)-5,6-dihydro-4H-1,3-oxazin-4-yl)-4-fluorophenyl)-5-cyano-3-methylpicolinamide], the IC50 amounted to 2 nM.
Then `N#Cc1cnc(C(=O)Nc2ccc(F)c([C@]3(CF)C[C@@H](C(F)(F)F)OC(N)=N3)c2)c(Cl)c1` [Example 28, N-(3-((4S,6S)-2-Amino-4-(fluoromethyl)-6-(trifluoromethyl)-5,6-dihydro-4H-1,3-oxazin-4-yl)-4-fluorophenyl)-3-chloro-5-cyanopicolinamide], with 11 nM.
